Reference: US8263606B2 (Xenon Pharmaceuticals Inc., priority 2008, dated 2012)

How the values were obtained:
CYP3A4 = CYP3A4 (Homo sapiens, UniProt P08684); experiment: Cytochrome P450 (CYP450) Inhibition Assay, CYP3A4 (Vivid fluorescence, BOMCC substrate); conditions: human, P450 Baculosomes (recombinant CYP3A4), probe BOMCC (Vivid substrate)
sodium channel = experiment: Guanidine influx assay (14C-guanidine radiotracer flux, in vitro); format: cell-based, human or rat; conditions: guanidine influx assay using a known cell line that expresses a sodium channel
How it was run: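 Sodium channel block is measured as reduced 14C-guanidine uptake in cells stably expressing human or rat channels, stimulated with aconitine. Potency is given as IC50 from a four-parameter curve.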

Sequence of CYP3A4 (P08684 whole entry): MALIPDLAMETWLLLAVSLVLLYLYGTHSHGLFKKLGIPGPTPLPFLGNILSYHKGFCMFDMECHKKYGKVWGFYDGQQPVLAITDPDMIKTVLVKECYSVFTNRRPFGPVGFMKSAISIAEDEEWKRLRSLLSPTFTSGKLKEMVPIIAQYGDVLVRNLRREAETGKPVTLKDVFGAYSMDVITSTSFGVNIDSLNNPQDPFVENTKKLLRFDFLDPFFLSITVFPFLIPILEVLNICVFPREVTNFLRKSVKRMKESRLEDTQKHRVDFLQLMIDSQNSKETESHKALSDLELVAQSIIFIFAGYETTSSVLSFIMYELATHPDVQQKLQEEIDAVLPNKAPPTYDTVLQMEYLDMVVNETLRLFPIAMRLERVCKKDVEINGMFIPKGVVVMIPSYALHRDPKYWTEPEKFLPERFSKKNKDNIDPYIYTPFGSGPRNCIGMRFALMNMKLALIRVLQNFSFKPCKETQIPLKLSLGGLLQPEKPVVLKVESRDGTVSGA

SMILES	melting point [°C]	inhibition at 10 µM (CYP3A4) [%]	IC50 (sodium channel; activity level class) [nM]	IC50 (sodium channel) [nM]
O=C1N(Cc2ccc(C(F)(F)F)o2)c2cccc(Cl)c2C12COc1cc3c(cc12)CCO3 (stereo not drawn) [Example 4.33, 4′-chloro-1′-{[5-(trifluoromethyl)furan-2-yl]methyl}-5,6-dihydrospiro[benzo[1,2-b:5,4-b′]difuran-3,3′-indol]-2′(1′H)-one]	166 to 169	> 50	1 to 100	
O=C1N(Cc2ccccn2)c2cccc(-c3cnc4ccccc4c3)c2C12COc1cc3c(cc12)OCCO3 (stereo not drawn) [Example 4.102, 1-(pyridin-2-ylmethyl)-4′-quinolin-3-yl-2,3-dihydrospiro[furo[2,3-g][1,4]benzodioxine-8,3′-indol]-2′(1′H)-one]	228 to 230	> 50	100 to 1000	
O=C1N(Cc2ccc(Br)cn2)c2ccccc2C12COc1cc3c(cc12)OCCO3 (stereo not drawn) [Example 1.14, 1′-[(5-bromopyridin-2-yl)methyl]-2,3-dihydrospiro[furo[2,3-g][1,4]benzodioxine-8,3′-indol]-2′(1′H)-one]	201 to 202	> 50	1 to 100	
O=C1N(Cc2cccc(Cl)n2)c2ccccc2C12COc1cc3c(cc12)OCCO3 (stereo not drawn) [Example 5.13, 1′-[(6-chloropyridin-2-yl)methyl]-2,3-dihydrospiro[furo[2,3-g][1,4]benzodioxine-8,3′-indol]-2′(1′H)-one]	181 to 182	> 50	1 to 100	
CC1(C)O[C@H]2[C@@H](O1)[C@@H](CN1C(=O)C3(COc4cc5c(cc43)OCCO5)c3ccccc31)O[C@@H]1OC(C)(C)O[C@@H]12 (stereo partly drawn) [Example 19, 1′-{[(3aR,5R,5aS,8aS,8bR)-2,2,7,7-tetramethyltetrahydro-3aH-bis[1,3]dioxolo[4,5-b:4′,5′-d]pyran-5-yl]methyl}-2,3-dihydrospiro[furo[2,3-g][1,4]benzodioxine-8,3′-indol]-2′(1′H)-one]	112 to 118	< 50		1000 to 10000
Cc1nc2cc3c(cc2s1)C1(CO3)C(=O)N(Cc2ccccn2)c2ccccc21 (stereo not drawn) [Example 9.21, 2-methyl-1′-(pyridin-2-ylmethyl)spiro[furo[2,3-f][1,3]benzothiazole-7,3′-indol]-2′(1′H)-one]	249 to 250	< 50	1000 to 10000	
CC(C)N1CCOC(CN2C(=O)C3(COc4cc5c(cc43)OCCO5)c3ccccc32)C1 (stereo not drawn) [Example 11.103, 1′-{[4-(1-methylethyl)morpholin-2-yl]methyl}-2,3-dihydrospiro[furo[2,3-g][1,4]benzodioxine-8,3′-indol]-2′(1′H)-one]	102 to 125	> 50		100 to 1000
CCc1ccc(NC(=O)c2ccccc2CN2C(=O)C3(COc4cc5c(cc43)CCO5)c3ccccc32)cc1 (stereo not drawn) [Example 12.8, N-(4-ethylphenyl)-2-[(2′-oxo-5,6-dihydrospiro[benzo[1,2-b:5,4-b′]difuran-3,3′-indol]-1′(2′H)-yl)methyl]benzamide]	> 230	< 50		≥ 10000
COc1ccc2c(c1)OCC21C(=O)N(Cc2cccnc2)c2ccccc21 (stereo not drawn) [Example 9.34, 6-methoxy-1′-(pyridin-3-ylmethyl)spiro[1-benzofuran-3,3′-indol]-2′(1′H)-one]	164 to 165	> 50	1 to 100	
O=C1N(C[C@H]2CCCO2)c2cccc(Br)c2C12COc1cc3c(cc12)CCO3 (stereo partly drawn) [Example 4.35, 4′-bromo-1′-[(2R)-tetrahydrofuran-2-ylmethyl]-5,6-dihydrospiro[benzo[1,2-b:5,4-b′]difuran-3,3′-indol]-2′(1′H)-one]	137 to 141	> 50	1 to 100	
O=C1N(Cc2noc(C(F)(F)F)n2)c2cccc(Cl)c2C12COc1cc3c(cc12)OCO3 (stereo not drawn) [Example 11.19, 4′-chloro-1′-{[5-(trifluoromethyl)-1,2,4-oxadiazol-3-yl]methyl}spiro[furo[2,3-f][1,3]benzodioxole-7,3′-indol]-2′(1′H)-one]	138 to 140	> 50		1 to 100
O=C1N(Cc2ccccn2)c2ccc(Br)cc2C12COc1cc3c(cc12)OCCO3 (stereo not drawn) [Example 2.49, 5′-bromo-1′-(pyridin-2-ylmethyl)-2,3-dihydrospiro[furo[2,3-g][1,4]-benzodioxine-8,3′-indol]-2′(1′H)-one]	> 250	> 50	1 to 100	
Cc1noc2cc3c(cc12)C1(CO3)C(=O)N(C[C@H]2CCCO2)c2ccccc21 (stereo partly drawn) [Example 9.26, 3-methyl-1′-[(2R)-tetrahydrofuran-2-ylmethyl]spiro[furo[3,2-f][1,2]benzisoxazole-5,3′-indol]-2′(1′H)-one]	134 to 135	< 50	100 to 1000	
O=C1N(Cc2ncccc2C(F)(F)F)c2ccccc2C12COc1ccc3c(c12)OCCO3 (stereo not drawn) [Example 11.109, 1′-{[3-(trifluoromethyl)pyridin-2-yl]methyl}-2,3-dihydrospiro[furo[3,2-f][1,4]benzodioxine-9,3′-indol]-2′(1′H)-one]	245 to 247	< 50		1000 to 10000
O=C1N(Cc2ccc(C(F)F)o2)c2ccccc2C12COc1cc3c(cc12)OCCO3 (stereo not drawn) [Example 11.110, 1-{[5-(difluoromethyl)furan-2-yl]methyl}-2,3-dihydrospiro[furo[2,3-g][1,4]benzodioxine-8,3′-indol]-2′(1′H)-one]	173 to 175	> 50		1 to 100
O=C1N(Cc2nsc(Cl)n2)c2cccc(Cl)c2C12COc1cc3c(cc12)OCO3 (stereo not drawn) [Example 6.1, 4′-chloro-1′-[(5-chloro-1,2,4-thiadiazol-3-yl)methyl]spiro[furo[2,3-f][1,3]benzodioxole-7,3′-indol]-2′(1′H)-one]	174 to 176	> 50	1 to 100	
COc1cc2c(cc1F)C1(CO2)C(=O)N(CC2CCCCO2)c2ccccc21 (stereo not drawn) [Example 4.64, 5-fluoro-6-methoxy-1′-(tetrahydro-2H-pyran-2-ylmethyl)spiro[1-benzofuran-3,3′-indol]-2′(1′H)-one]	131 to 133	< 50	100 to 1000	
Cn1c(CN2C(=O)C3(COc4cc5c(cc43)OCCO5)c3ccccc32)nc2ccccc21 (stereo not drawn) [Example 4.120, 1′-[(1-methyl-1H-benzimidazol-2-yl)methyl]-2,3-dihydrospiro[furo[2,3-g][1,4]benzodioxine-8,3′-indol]-2′(1′H)-one]	> 240	> 50	1 to 100	
Cc1nc2cc3c(cc2s1)C1(CO3)C(=O)N(CC2CCOCC2)c2ccccc21 (stereo not drawn) [Example 4.57, 2-methyl-1′-(tetrahydro-2H-pyran-4-ylmethyl)spiro[furo[2,3-f][1,3]benzothiazole-7,3′-indol]-2′(1′H)-one]	186 to 187	> 50	1000 to 10000	
O=C1N(Cc2cc(F)ccn2)c2ccccc2C12COc1cc3c(cc12)OCCO3 (stereo not drawn) [Example 4.110, 1-[(4-fluoropyridin-2-yl)methyl]-2,3-dihydrospiro[furo[2,3-g][1,4]benzodioxine-8,3′-indol]-2′(1′H)-one]	228 to 231	< 50	1 to 100	
N#Cc1cccc2c1NC(=O)C21COc2cc3c(cc21)OCO3 (stereo not drawn) [Example 11.75, 2′-oxo-1′,2′-dihydrospiro[furo[2,3-f][1,3]benzodioxole-7,3′-indole]-7′-carbonitrile]	205 to 207	> 50		100 to 1000
N#Cc1cc2c(cc1O)OCC21C(=O)N(Cc2ccccc2C(F)(F)F)c2ccccc21 (stereo not drawn) [Example 45.1, 6-hydroxy-2′-oxo-1′-[2-(trifluoromethyl)benzyl]-1′,2′-dihydrospiro[1-benzofuran-3,3′-indole]-5-carbonitrile]	122 to 124	< 50		1000 to 10000
Nc1ccc(CN2C(=O)C3(COc4cc5c(cc43)OCCO5)c3ccccc32)cn1 (stereo not drawn) [Example 37, 1′-[(6-aminopyridin-3-yl)methyl]-2,3-dihydrospiro[furo[2,3-g][1,4]benzodioxine-8,3′-indol]-2′(1′H)-one]	117 to 119	< 50		1 to 100
O=C1N(C[C@H]2CCCO2)c2ccccc2C12COc1cc3c(cc12)CCCO3 (stereo partly drawn) [Example 4.53, 1′-[(2R)-tetrahydrofuran-2-ylmethyl]-6,7-dihydro-5H-spiro[furo[3,2-g]chromene-3,3′-indol]-2′(1′H)-one]	151 to 156	< 50	100 to 1000	
N#Cc1cc2c(cc1O)OCC21C(=O)N(C[C@H]2CCCO2)c2ccccc21 (stereo partly drawn) [Example 45, 6-hydroxy-2′-oxo-1′-[(2R)-tetrahydrofuran-2-ylmethyl]-1′,2′-dihydrospiro[1-benzofuran-3,3′-indole]-5-carbonitrile]	218 to 221	< 50		1000 to 10000
O=C1N(Cc2ccc(=O)[nH]c2)c2ccccc2C12COc1cc3c(cc12)OCCO3 (stereo not drawn) [Example 35, 1′-[(6-oxo-1,6-dihydropyridin-3-yl)methyl]-2,3-dihydrospiro[furo[2,3-g][1,4]benzodioxine-8,3′-indol]-2′(1′H)-one]	249 to 250	< 50		100 to 1000
CN(C)c1ccc(-c2cccc3c2C2(COc4cc5c(cc42)OCO5)C(=O)N3)cn1 (stereo not drawn) [Example 16.14, 4′-[6-(dimethylamino)pyridin-3-yl]spiro[furo[2,3-f][1,3]benzodioxole-7,3′-indol]-2′(1′H)-one]	> 245	> 50		1000 to 10000
